As usually defined, the Kd is the concentration at which binding is half-saturated.

“Also recorded” adds a separate entry of the source. Read-outs that look alike come from different tables or passages of the source.

In data set [1] the test system is sterol biosynthesis in T. cruzi amastigotes. Put plainly: Lipid analysis of T. cruzi amastigotes (GC-MS of membrane sterols). The format is cell-based, Trypanosoma cruzi. The conditions noted are these: amastigotes in C2C12 myoblasts, 24 h drug treatment, concentrations 5x below cidal; posaconazole 100 nM. Here is the method: To grow intracellular amastigotes for lipid analysis, C2C12 mouse skeletal myoblasts (4×10^6 cells) cultured in 150 cm^2 flasks as described above were infected with 80×10^6 trypomastigotes for 24 h. The cultures were treated with test compounds 72 h post-infection at concentrations 5× below cidal to avoid completely killing the parasites. Posaconazole at 100 nM was used as a positive control. […] Cells were harvested 96 h post-infection and after 24 h of drug treatment. Cell detachment was initiated by brief treatment with 10 ml of 0.25% trypsin in PBS, followed promptly by replacement with 10 ml of fresh media containing FBS. Harvested cells were washed 3× with 25 ml of PBS to remove FBS and released trypomastigotes. The suspension of infected cells was then transferred to a glass tube and centrifuged at 2000 rpm for 5 min. After washing with PBS, 2 ml of chloroform-methanol solution (2∶1 ratio) was added to re-suspend the cell pellet. Organic solvents were then evaporated under N2 flow, allowing the pellet to dry.
For total lipid extraction, the dry cell pellet was treated with 2 ml chloroform for 24 h. Polar molecules were removed by washing the organic phase 3× with 3 ml water. The organic phase containing the sterols was subsequently dried on an evaporator under N2 flow. The lipids were re-suspended in 2 ml of chloroform-methanol (9∶1 ratio), washed again 3× with 3 ml water, dried under N2 flow and re-suspended in acetonitrile. After an additional wash 3× with 3 ml water, the acetonitrile was dried under an N2 stream. Extracted dry sterols were re-dissolved in hexane and derivatized with N,N-bis(trimethylsilyl)-2,2,2-trifluoroacetamide (BSTFA) (Pierce) by incubating at 37°C for at least 2 hours. Sterols as their trimethylsilyl (TMS) derivatives were analyzed by gas chromatography and mass spectrometry (GC-MS). GC-MS analysis and lipid identification were performed as described previously.

The target in another data set is T1, T. cruzi CYP51 (Trypanosoma cruzi, UniProt Q7Z1V1).
T1 construct: had the first 21 residues upstream of K22 replaced with the fragment MAKKKKK; His6 (C); made in house
Put plainly: Low throughput UV-vis binding assay. The settings on record: for Binding to CYP51 by UV-vis titration (in words): 0.5 µM CYP51. On the procedure:
Hit validation in the low throughput UV-vis binding assay was performed according to a previously published but somewhat modified protocol. UV-vis absorption spectra were recorded on a Cary scanning spectrophotometer (Varian) in the 1-cm path length quartz cuvette at 23°C in 100 mM potassium phosphate buffer, pH 7.5, containing 10% glycerol, with CYP51 concentration of 0.5 µM. Compound solutions used for titration were prepared in DMSO at 100 µM and added in 2-µl aliquots to each 3 ml sample using a P2 pipetman (Gilson). Binding affinity of hits was estimated using the quadratic tight-binding equation [27]: […]
where Aobs is the absorption shift determined at any ligand concentration; Amax is the maximal absorption shift obtained at saturation; KD is dissociation constant for the inhibitor-enzyme complex; S is the ligand concentration; Et is the total enzyme concentration.

The subject of data set [2] is host cell (skeletal myoblasts, bovine embryo skeletal muscle or C2C12). Kind of data set: Host cell toxicity in the cross-validation assay. The format is cell-based. The conditions noted are these: host cells in cross-validation assay, up to 10 µM. On the procedure: Compound cross-validation in T. cruzi infected skeletal myoblasts (bovine embryo skeletal muscle or C2C12 lineage) was performed according to the protocol adapted from Engel and co-authors. Compounds stored as 10 mM stocks in DMSO were freshly diluted immediately prior to use. […] To prepare plates for the assay, skeletal myoblasts cultured in […] flasks were washed once with phosphate buffered saline (PBS) and then incubated with 0.25% trypsin in PBS for 1–3 minutes for detachment. The trypsin solution was removed and myoblasts were released from the flask bottom. Fresh medium was added and cell concentration was determined using a Neubauer hemocytometer. Myoblasts in 50 µl of culture medium were transferred to the clear-bottom wells of black 96-well plates (Greiner Bio-One, #655090) at a density of 1500 cells/well and infected with 50 µl trypomastigote culture at 7500 parasites/well (1∶5 ratio). The cells were allowed to adhere and spread for 24 h in the incubator before the media was removed and 100 µl of fresh medium containing 0, 0.04, 0.12, 0.37, 1.10, 3.30 or 10 µM of test compound was added to each well, followed by 72 h incubation at 37°C in an atmosphere of 5% CO2. Posaconazole was used as a positive control at the same concentrations as the test compounds. The cells were then fixed by adding 100 µl/well of 8% formaldehyde in PBS, resulting in a 4% working concentration of formaldehyde. To stain the nucleus of the host cell and the nucleus and kinetoplast of parasites, cell membranes were first permeabilized by washing once with 100 µl of 0.1% Triton X-100 in PBS, then treated for 1 h with 0.2 µg/ml of the fluorescent DNA dye, 4,6-diamidino-2-phenylindole (DAPI), followed by one wash with PBS. The fixed plates were kept at 4°C and protected from light until images were acquired.
Plates were allowed to equilibrate to room temperature and images were acquired by the IN Cell Analyzer 2000 (GE Healthcare) with a 20× objective, 5 fields per well, with 350/50 nm and 460/40 nm fluorescent excitation and emission filters. In the absence of drug cytotoxicity, at least 800 cells were imaged and counted per well. The images were processed and analyzed by IN Cell Analyzer Developer 1.6 software. The size parameters used to segment host and parasite organelles were 125 µm^2 for host nucleus, and 1–2 µm^2 for parasite nucleus/kinetoplast. Since DAPI also strongly stains host heterochromatin regions that display as shapes resembling parasites ( Figure 3 ), particles co-localized to host nuclei were excluded from quantification, while parasite aggregates near the host nucleus were counted as infected cells. Numbers of host cells and intracellular amastigotes were determined based on host cell and parasite nucleus and parasite kinetoplast quantification, providing a measure of growth inhibition during the first 72 h of post-infection treatment compared to untreated controls.
^aToxicity was assessed as the highest percentage of host cell growth inhibition caused by compound treatment. Scores are assigned as 1-<20%; 2-21-30%; 3- 31-40%; 4-41-50% and 5->50% growth inhibition.

Data set [3] concerns T. cruzi trypomastigote strain CAI/72 in C2C12 myoblasts. Kind of data set: Trypanocidal assay. The format is cell-based, Trypanosoma cruzi. The conditions noted are these: 14 days treatment, then one week compound-free. Here is the method: Compounds cross-validated with low EC50 against T. cruzi infected cells were further evaluated to determine the “cidal” concentration at which host cells are effectively cured, using the protocol adapted from Engel et al 1998 [30]. To allow long term treatment and avoid culture overgrowth, C2C12 myoblasts were seeded at low density in 96 well plates (10^3 cells/well) and cultured with DMEM H-21 medium supplemented with low FBS concentration (1%), 25 mM HEPES, 2 mM L-glutamine, 100 U/ml penicillin and 100 µg/ml streptomycin. The cells were infected with T. cruzi trypomastigote strain CAI/72 (5 parasites/cell) for 24 h and treated with 0, 0.04, 0.12, 0.37, 1.10, 3.30 or 10 µM test compounds in 100 µl of medium for 14 days. During the course of treatment, medium supplemented with test compounds was replaced every 72 h. After 14 days, drug pressure was withdrawn and incubation continued in the compound-free medium for another week, during which cultures were monitored for reappearance of T. cruzi trypomastigotes in the supernatant.

T1 sequence (Q7Z1V1 15-481, looked up, natural form): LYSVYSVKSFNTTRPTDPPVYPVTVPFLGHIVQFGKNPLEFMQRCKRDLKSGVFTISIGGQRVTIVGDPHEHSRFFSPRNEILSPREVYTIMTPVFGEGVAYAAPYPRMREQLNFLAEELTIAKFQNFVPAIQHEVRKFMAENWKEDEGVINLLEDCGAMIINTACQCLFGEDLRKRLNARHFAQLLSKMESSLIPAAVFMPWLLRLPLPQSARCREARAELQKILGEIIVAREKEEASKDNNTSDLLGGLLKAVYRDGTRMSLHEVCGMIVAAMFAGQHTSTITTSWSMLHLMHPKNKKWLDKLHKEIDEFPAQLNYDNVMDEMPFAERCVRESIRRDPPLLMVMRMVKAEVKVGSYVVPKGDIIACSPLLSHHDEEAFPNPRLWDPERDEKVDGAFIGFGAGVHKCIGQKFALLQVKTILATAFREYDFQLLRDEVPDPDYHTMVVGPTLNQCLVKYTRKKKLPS

Take `O=C(c1ccc(Cl)cc1)C(Oc1ccc(Cl)cc1)n1cncn1` (stereo not shown) [Compound 13, 2-(4-chlorophenoxy)-1-(4-chlorophenyl)-2-(1H-1,2,4-triazol-1-yl)ethanone]: the “Effect on membrane sterol composition by GC-MS” value in data set [1] is “present in amounts comparable to those of 14-demethylated products; also recorded: increase in lanosterol and eburicol precursors and a concomitant decline in episterol, fecosterol and other 14-demethylated intermediates”. At T. cruzi CYP51, the Kd was no more than 5 nM; the “Binding to CYP51 by UV-vis titration (in words)” value is “binds and saturates CYP51 at equimolar 0.5 µM concentrations”. In addition, the “Toxicity score (highest percentage of host cell growth inhibition)” value in data set [2] is listed as 3 (3- 31-40%). Also, in data set [3], the Trypanocidal concentration is given as 2.5 µM.
Turning to `Brc1ccccc1OCCCCCCn1ccnc1` [Compound 1], in data set [1], the “Effect on membrane sterol composition by GC-MS” value is “lanosterol (f) and eburicol (h) dominated the GC-MS traces; also recorded: fecosterol (e) was completely inhibited; also recorded: suppressed sterol biosynthesis in T. cruzi amastigotes more efficiently than posaconazole”. Also, at T. cruzi CYP51, the “Binding to CYP51 by UV-vis titration (in words)” value is given as “at least low nanomolar binding affinity”. Besides, the Kd on T. cruzi CYP51 (UV-vis titration, 0.5 µM CYP51, quadratic tight-binding equation, lower limit of method ~5 nM, read-out: KD) is no more than 5 nM. Also, the “Toxicity score (highest percentage of host cell growth inhibition)” value in data set [2] is recorded as 2 (2-21-30%). This compound displayed a Trypanocidal concentration in data set [3] of 0.04 µM.

These data come from publication PMC3409115, “Diverse Inhibitor Chemotypes Targeting Trypanosoma cruzi CYP51” (PLoS Neglected Tropical Diseases, 2012).
